Experimental data taken from patent US10568827B2, “External dermal agent for reducing yellowish dullness” (Hayashibara Co., Ltd., priority 2015, dated 2020).

Target: carbonyl BSA (Bos taurus, UniProt P02769)
Assay: Carbonyl protein reduction test with carbonyl BSA model (OxyBlot dot blot)
Format: biochemical, bovine
Details: for action of reducing carbonyl protein (carbonyl BSA): conclusion in words
Experimental: A carbonyl protein, obtained by carbonylating bovine serum albumin (termed “BSA”, hereinafter), was prepared as a carbonyl protein model (termed “carbonyl BSA”, hereinafter) and used in this experiment.
In phosphate buffered saline (termed “PBS (-)”, hereinafter) containing 100 μM of sodium hypochlorite as a carbonyl initiator was dissolved BSA to give a final concentration of 40 mg/mL, followed by keeping the resulting solution at 37° C. overnight to form carbonyl BSA, as a carbonyl protein model, used as a substance to cause skin yellowness, and removing the remaining sodium hypochlorite with “AMICON ULTRA 10K”, a product name of ultrafiltration membrane, commercialized by Merck Millipore Corporation, Tokyo, Japan, to obtain a carbonyl BSA. In this experiment, the carbonyl BSA was used as a carbonyl protein model.
Based on Western blot analysis, the concentration of carbonyl BSA was assayed with dot blot method using a kit, “OxyBlot™ Protein Oxidation Detection Kit”, a product name of a kit for analyzing the oxidation level of protein, commercialized by Merck Millipore Corporation, Tokyo, Japan. The resulting measured values (emission intensity) were analyzed with “Image J”, an image processing software explored by National Institutes of Health (NIH), Maryland, USA. While, a PBS (-) solution (called “control”, hereinafter) containing carbonyl BSA, obtained similarly as in the above except for not using any of the test samples, was similarly measured as in the above, followed by determining the ratios of the measured values for those with the test samples against that of control. The results are in Table 1 and FIG. 1. […] The numerals in the table respectively show the ratios of carbonyl BSA when the test samples were respectively used alone against the measured value of carbonyl BSA, regarded as 1, for Control with no addition of any of the test samples.
The results are respectively in Tables 2 and 3 and FIGS. 2 and 3. The numerals with no symbol “%” in each table show ratios of carbonyl BSA obtained in such a manner of calculating the amount of carbonyl BSA for the system with either or both of the test samples that were respectively used alone or used in combination while regarding as one the amount of carbonyl BSA in each control system with no addition of any of the compositions containing glycosyl hesperetin or glycosyl naringenin.
Except for using any one of mannose, N-acetylglucosamine, “MALTOSE HHH” as a product name of maltose, raffinose, maltotetraose, and “TORNARE®” as a product name of glycosyl trehalose used as a cosmetic base material, which are shown in Table 4 below, in place of the composition containing glycosyl naringenin and the ascorbic acid 2-glucoside used in the above (4), and preparing it into a solution containing 0.1 w/v % of any of the above saccharide for use as a test solution for carbonyl protein reduction test, it was examined the carbonyl protein reduction action of the combination use the composition containing glycosyl hesperetin and any one of the above-identified saccharides similarly as in the above (4).
This experiment was conducted with organic acids and amino acids, which were focused on as compounds to be used with the composition containing glycosyl hesperetin.

[1] = test—2 (Table 5), single use 0.1 w/v %, Control = 1
[2] = test—2, combination use of composition containing glycosyl hesperetin (0.1 w/v %) and the labelled saccharide (0.1 w/v %)
[3] = test—3, composition containing glycosyl hesperetin (0.1 w/v %) in combination with the labelled organic acid or amino acid (0.1 w/v % as headed)
[4] = test—3, sole use of organic acid or amino acid (0.1 w/v % as headed), Control = 1
[5] = sole use test, test sample 0.1 w/v %, carbonyl BSA:test sample 1:1 by mass, 37° C., 16 hours, Control (no addition) = 1

Sequence of carbonyl BSA (P02769 25-607): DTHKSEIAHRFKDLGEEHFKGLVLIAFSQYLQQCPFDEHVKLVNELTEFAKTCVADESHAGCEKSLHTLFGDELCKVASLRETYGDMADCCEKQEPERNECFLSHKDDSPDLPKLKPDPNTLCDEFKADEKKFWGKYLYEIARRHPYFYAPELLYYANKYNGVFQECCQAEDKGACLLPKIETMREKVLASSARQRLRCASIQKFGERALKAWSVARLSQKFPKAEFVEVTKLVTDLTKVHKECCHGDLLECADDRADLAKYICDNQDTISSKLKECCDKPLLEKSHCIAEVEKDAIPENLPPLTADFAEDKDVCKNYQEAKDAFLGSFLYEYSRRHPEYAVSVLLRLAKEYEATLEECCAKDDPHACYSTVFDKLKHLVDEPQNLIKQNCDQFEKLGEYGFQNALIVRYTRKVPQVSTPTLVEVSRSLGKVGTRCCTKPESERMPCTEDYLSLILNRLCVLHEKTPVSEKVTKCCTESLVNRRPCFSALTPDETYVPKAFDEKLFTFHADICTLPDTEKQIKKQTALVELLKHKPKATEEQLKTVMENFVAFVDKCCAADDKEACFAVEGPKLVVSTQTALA

| SMILES | Ratio of carbonyl BSA [3] | Ratio of carbonyl BSA [4] | other results |
| --- | --- | --- | --- |
| OC[C@H]1O[C@H](OC[C@H]2O[C@H](O[C@]3(CO)O[C@H](CO)[C@@H](O)[C@@H]3O)[C@H](O)[C@@H](O)[C@@H]2O)[C@H](O)[C@@H](O)[C@H]1O [Raffinose, raffinose] |  |  | Ratio of carbonyl BSA [1]: 0.23; Ratio of carbonyl BSA [2]: 0.54 |
| COc1cc(/C=C/C(=O)O)ccc1O [E, ferulic acid] | 0.35 | 0.82 |  |
| C/C=C/C=C/C(=O)O [I, sorbic acid] | 0.26 | 1.04 |  |
| O=C(O)c1ccccc1 [J, benzoic acid] | 0.44 | 0.95 |  |
| N[C@@H](CCC(=O)[O-])C(=O)[O-].[Na+].[Na+] [L, sodium glutamate] | 0.28 | 0.77 |  |
| CC(O)C(=O)O (stereo not drawn) [A, lactic acid] | 0.35 | 0.89 |  |
| N[C@@H](CCC(=O)N[C@@H](CS)C(=O)NCC(=O)O)C(=O)O [Glutathione (reduced form), reduced glutathione, reference compound] |  |  | action of reducing carbonyl protein (carbonyl BSA): no action of reducing carbonyl protein; Ratio of carbonyl BSA [5]: 1.19 |
| O=C[C@H](O)[C@@H](O)[C@H](O)[C@H](O)C(=O)O [F, glucuronic acid] | 0.16 | 1.01 |  |
| NC(=O)c1cccnc1 [Niacinamide, niacinamide, reference compound] |  |  | action of reducing carbonyl protein (carbonyl BSA): no action of reducing carbonyl protein; Ratio of carbonyl BSA [5]: 1.05 |
| OC[C@H]1O[C@H](O[C@H]2[C@H](O)[C@@H](O)C(O)O[C@@H]2CO)[C@H](O)[C@@H](O)[C@@H]1O (mixture of isomers) [Maltose, maltose] |  |  | Ratio of carbonyl BSA [1]: 0.18; Ratio of carbonyl BSA [2]: 0.11 |
| OC[C@H]1O[C@H](O[C@H]2[C@H](O)[C@@H](O)[C@@H](O[C@H]3[C@H](O)[C@@H](O)[C@@H](O[C@H]4[C@H](O)[C@@H](O)C(O)O[C@@H]4CO)O[C@@H]3CO)O[C@@H]2CO)[C@H](O)[C@@H](O)[C@@H]1O (stereo partly drawn) [Maltotetraose, maltotetraose] |  |  | Ratio of carbonyl BSA [1]: 0.71; Ratio of carbonyl BSA [2]: 0.13 |
| NCC(=O)O [K, glycine] | 0.32 | 0.71 |  |
| CC(=O)O [H, acetic acid] | 0.25 | 1.08 |  |
| O=C(O)CC(O)(CC(=O)O)C(=O)O [C, citric acid] | 0.52 | 0.96 |  |
| O=C[C@H](O)[C@H]1OC(=O)[C@@H](O)[C@H]1O [G, glucuronolactone] | 0.49 | 1.07 |  |
| CC(=O)N[C@H]1C(O)O[C@H](CO)[C@@H](O)[C@@H]1O (stereo partly drawn) [N-Acetyl glucosamine] |  |  | Ratio of carbonyl BSA [1]: 0.48; Ratio of carbonyl BSA [2]: 0.79 |
| O=C1O[C@H]([C@@H](O)CO)C(O)=C1O[C@H]1O[C@H](CO)[C@@H](O)[C@H](O)[C@H]1O [L-Ascorbic acid 2-glucoside, L-ascorbic acid 2-glucoside, reference compound] |  |  | Ratio of carbonyl BSA [5]: 0.73; Ratio of carbonyl BSA (test—1 (Tables 2, 3), single use, with no addition of the other ingredient, test sample 0.1 w/v %, Control = 1): 0.70 |
| O=C(O)C(O)C(O)C(=O)O (stereo not drawn) [B, tartaric acid] | 0.51 | 0.95 |  |
